In paper PMC3387161, “Small Molecules Targeted to a Non-Catalytic “RVxF” Binding Site of Protein Phosphatase-1 Inhibit HIV-1” (PLoS ONE, 2012):

System: CEM cells
Experiment: Toxicity by propidium iodide fluorescence in CEM-GFP cells
Format: cell-based
Settings: Homo sapiens, CCRF-CEM, 3 µM to 45 µM, 24 h

COCCNC(=O)COC(=O)c1c2c(nc3ccccc13)/C(=C/c1ccc(O)cc1)CCC2 [1H4]
IC50: > 25 µM
